Measured values from patent US20130303533A1, “AZOLOPYRIDINE AND AZOLOPYRIMIDINE COMPOUNDS AND METHODS OF USE THEREOF” (AMBIT BIOSCIENCES CORPORATION, priority 2010, published 2013).

Assays:
[1] = molecular target: T1, JAK3 (Homo sapiens, UniProt P52333); assay: Competition binding assay to determine binding constants (Kd), JAK3
T1 construct: made in house; host or cells: T7 phage display or HEK-293 cells (alternatives)
T1 sequence (P52333 1-1124): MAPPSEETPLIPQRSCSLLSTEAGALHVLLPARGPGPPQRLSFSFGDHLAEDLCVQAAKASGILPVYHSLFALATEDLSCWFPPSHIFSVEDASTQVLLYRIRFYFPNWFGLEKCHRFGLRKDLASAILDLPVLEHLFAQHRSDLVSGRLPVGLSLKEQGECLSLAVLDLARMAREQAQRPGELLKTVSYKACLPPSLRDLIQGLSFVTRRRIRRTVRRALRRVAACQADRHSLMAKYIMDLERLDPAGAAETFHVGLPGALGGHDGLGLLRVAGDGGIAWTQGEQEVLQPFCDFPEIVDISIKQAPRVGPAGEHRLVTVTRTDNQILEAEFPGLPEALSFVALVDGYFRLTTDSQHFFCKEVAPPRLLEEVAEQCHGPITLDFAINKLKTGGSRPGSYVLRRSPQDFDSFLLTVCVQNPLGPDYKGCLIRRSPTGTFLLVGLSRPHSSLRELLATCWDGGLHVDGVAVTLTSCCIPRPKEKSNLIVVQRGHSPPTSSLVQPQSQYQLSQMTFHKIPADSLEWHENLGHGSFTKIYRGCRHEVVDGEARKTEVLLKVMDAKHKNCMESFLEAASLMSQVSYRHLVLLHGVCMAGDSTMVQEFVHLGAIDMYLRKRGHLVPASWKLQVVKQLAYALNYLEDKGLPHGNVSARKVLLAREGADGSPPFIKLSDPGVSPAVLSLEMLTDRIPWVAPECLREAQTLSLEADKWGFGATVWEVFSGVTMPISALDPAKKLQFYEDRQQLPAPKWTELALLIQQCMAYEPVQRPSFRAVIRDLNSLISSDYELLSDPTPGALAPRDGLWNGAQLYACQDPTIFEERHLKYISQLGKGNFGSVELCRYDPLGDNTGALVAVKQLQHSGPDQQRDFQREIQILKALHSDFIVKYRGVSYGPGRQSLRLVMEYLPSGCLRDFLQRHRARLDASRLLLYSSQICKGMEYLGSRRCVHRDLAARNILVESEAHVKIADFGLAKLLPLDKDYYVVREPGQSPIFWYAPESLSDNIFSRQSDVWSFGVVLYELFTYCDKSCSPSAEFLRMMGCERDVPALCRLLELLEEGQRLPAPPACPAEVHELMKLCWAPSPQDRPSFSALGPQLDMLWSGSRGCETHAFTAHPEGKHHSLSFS
Source text: (§1) Competition Binding Assay to Determine Binding Constants (Kd) of the Compounds Against JAK Kinases
(§2) Competition binding assays used herein were developed, validated and performed as described in Fabian et al., Nature Biotechnology 2005, 23, 329-336. Kinases were produced as fusions to T7 phage (See, Fabian et al. or WO04/015142) or alternatively, the kinases were expressed in HEK-293 cells and subsequently tagged with DNA for PCR detection (See, WO08/005,310). For the binding assays, streptavidin-coated magnetic beads were treated with biotinylated affinity ligands for 30 min at rt to generate affinity resins. The liganded beads were blocked with excess biotin and washed with blocking buffer (SeaBlock (Pierce), 1% BSA, 0.05% Tween 20, 1 mM DTT) to remove unbound ligand and to reduce non-specific binding. Binding reactions were assembled by combining kinase, liganded affinity beads, and test compounds in 1× binding buffer (20% SeaBlock, 0.17×PBS, 0.05% Tween 20, 6 mM DTT). Test compounds were prepared as 100× stocks in DMSO and rapidly diluted into the aqueous environment. DMSO was added to control assays lacking a test compound. Primary screen interactions were performed in polypropylene 384-well plates in a final volume of 34 μL, while Kd determinations were performed in polystyrene 96-well plates in a final volume of 135 μL. The assay plates were incubated at room temperature with shaking for 1 hour, long enough for binding reactions to reach equilibrium, and the affinity beads were washed extensively with wash buffer (1×PBS, 0.05% Tween 20) to remove unbound protein. The beads were then resuspended in elution buffer (1×PBS, 0.05% Tween 20, 2 μM non-biotinylated affinity ligand) and incubated at room temperature with shaking for 30 min. The kinase concentration in the eluates was measured by quantitative PCR. Each kinase was tested individually against each compound. Kds were determined using eleven serial threefold dilutions. A selectivity score, which is a quantitative measure of selectivity of a compound against a panel of enzymes, may be calculated for a compound by dividing the number of enzymes for which a compound meets a set criteria, (for example, a binding constant of 100 nM or less), by the total number of enzymes tested.

[2] = molecular target: T2, TYK2 (Homo sapiens, UniProt P29597); assay: Competition binding assay to determine binding constants (Kd), TYK2
T2 construct: made in house; host or cells: T7 phage display or HEK-293 cells (alternatives)
T2 sequence (P29597 whole entry): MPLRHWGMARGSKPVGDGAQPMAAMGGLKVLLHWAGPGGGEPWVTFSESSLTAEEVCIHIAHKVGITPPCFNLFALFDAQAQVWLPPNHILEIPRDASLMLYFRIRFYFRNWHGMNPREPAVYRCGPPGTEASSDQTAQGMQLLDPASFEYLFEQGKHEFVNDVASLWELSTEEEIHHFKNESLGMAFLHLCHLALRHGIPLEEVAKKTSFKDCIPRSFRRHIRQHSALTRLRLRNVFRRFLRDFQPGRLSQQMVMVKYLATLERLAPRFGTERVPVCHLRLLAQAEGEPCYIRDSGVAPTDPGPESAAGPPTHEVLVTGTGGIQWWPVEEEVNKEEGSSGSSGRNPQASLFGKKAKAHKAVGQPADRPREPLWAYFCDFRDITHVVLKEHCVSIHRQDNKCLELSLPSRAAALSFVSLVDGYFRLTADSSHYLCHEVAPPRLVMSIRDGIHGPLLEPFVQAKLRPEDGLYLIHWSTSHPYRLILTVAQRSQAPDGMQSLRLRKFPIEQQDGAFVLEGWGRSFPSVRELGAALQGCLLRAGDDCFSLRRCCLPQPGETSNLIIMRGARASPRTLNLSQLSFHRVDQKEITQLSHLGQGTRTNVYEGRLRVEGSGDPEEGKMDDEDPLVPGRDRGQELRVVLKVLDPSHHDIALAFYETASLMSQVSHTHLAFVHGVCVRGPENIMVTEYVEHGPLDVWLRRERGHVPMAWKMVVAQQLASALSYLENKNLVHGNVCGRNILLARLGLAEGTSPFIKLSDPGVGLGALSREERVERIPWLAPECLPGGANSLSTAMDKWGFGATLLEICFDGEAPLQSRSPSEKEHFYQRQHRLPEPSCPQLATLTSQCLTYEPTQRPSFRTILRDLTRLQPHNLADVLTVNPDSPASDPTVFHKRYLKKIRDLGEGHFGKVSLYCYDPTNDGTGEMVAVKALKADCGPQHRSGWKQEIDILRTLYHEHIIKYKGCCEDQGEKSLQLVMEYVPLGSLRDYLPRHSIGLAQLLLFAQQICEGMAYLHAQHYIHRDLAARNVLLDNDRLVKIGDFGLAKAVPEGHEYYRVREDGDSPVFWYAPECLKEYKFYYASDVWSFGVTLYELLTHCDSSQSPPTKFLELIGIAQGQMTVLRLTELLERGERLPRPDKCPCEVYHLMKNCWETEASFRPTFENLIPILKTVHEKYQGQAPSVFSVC
Source text: as §1, §2

[3] = molecular target: T3, JAK2 (Homo sapiens, UniProt O60674); assay: Competition binding assay to determine binding constants (Kd), JAK2
T3 construct: made in house; host or cells: T7 phage display or HEK-293 cells (alternatives)
T3 sequence (O60674 whole entry): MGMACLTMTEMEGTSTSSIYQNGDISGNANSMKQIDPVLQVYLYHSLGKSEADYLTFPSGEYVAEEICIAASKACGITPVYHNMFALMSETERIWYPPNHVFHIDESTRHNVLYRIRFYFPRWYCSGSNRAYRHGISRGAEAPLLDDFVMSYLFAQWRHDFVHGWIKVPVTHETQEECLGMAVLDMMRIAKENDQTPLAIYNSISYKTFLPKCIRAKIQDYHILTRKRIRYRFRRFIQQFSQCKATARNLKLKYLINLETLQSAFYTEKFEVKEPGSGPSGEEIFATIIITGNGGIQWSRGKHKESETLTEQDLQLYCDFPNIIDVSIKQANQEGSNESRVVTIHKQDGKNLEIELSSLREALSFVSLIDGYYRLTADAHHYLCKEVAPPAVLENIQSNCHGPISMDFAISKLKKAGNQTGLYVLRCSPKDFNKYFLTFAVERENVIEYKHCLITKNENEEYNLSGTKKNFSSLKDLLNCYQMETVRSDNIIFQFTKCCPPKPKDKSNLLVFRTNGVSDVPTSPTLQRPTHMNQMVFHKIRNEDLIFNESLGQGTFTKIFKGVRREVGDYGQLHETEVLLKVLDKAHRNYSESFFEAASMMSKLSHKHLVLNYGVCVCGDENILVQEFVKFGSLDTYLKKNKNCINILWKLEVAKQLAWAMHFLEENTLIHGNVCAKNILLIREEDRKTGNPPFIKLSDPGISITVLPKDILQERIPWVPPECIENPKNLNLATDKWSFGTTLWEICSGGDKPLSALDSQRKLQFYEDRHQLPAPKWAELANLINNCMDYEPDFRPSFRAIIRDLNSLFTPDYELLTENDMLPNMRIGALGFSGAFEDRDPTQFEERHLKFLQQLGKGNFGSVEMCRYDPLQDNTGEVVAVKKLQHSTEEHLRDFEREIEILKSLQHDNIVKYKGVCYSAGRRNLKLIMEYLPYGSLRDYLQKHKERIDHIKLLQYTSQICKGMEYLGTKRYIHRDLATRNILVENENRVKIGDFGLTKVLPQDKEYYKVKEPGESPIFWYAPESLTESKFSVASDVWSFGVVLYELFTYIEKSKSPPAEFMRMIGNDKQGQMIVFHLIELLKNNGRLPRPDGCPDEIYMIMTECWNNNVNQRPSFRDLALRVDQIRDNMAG
Source text: as §1, §2

[4] = system: GM-CSFR/JAK2/STAT5 pathway; assay: CSTF-1 cell-based reporter assay; conditions: Homo sapiens; csTF-1 cells, GM-CSF at 2 ng/mL, 4 hours, beta-lactamase reporter; read-out: Cell Assay: CS TF-1 reporter assay IC50
Description: CSTF-1 Cell-Based Reporter Assay
CSTF-1 cells are derived from the human erythroleukemia cell line that is growth dependent on GM-CSF and has an intact GM-CSFR/JAK2/STAT5 pathway. The cell line contains stably integrated beta-lactamase reporter gene under the control of the […] (irf 1) response element recognized by the activated transcription factor STAT5. csTF-1 cells (Invitrogen K1219) were washed with assay media (97% OPTIMEM/0.5% dialyzed FBS/0.1 mM NEAA/1 mM Na pyr/P/S) and seeded in the same media at 5×10^5 cell/mL in T150 flask. After 16 hour incubation, cells were seeded at 2×10^5 cell/well in 50 μl volume, into Costar, clear bottom, 96-well assay plates. Serial dilutions of compounds were added to the plates with final DMSO concentration at 0.5% and GM-CSF at 2 ng/mL and the plates were then incubated at 30° C. and 5% CO2 for 4 hours. The plates were brought to room temperature before adding Substrate Mixture according to manufacturer's protocol (Invitrogen, Catalog #K1085). The assay plates containing the substrate mixture were incubated in the dark at room temperature for 2 hours. Blue and green fluorescence was measured with excitation at 409 nm and emission at 460 nm (for blue) and excitation at 409 nm and emission at 530 nm (for green) using Spectra Max Gemini EM.

Kd [1] | Kd [2] | Kd [3] | IC50 [4] | SMILES
≤ 10 nM | ≤ 10 nM | ≤ 1 nM | ≤ 100 nM | CCn1ccc2c(Nc3cc(C)[nH]n3)nc(S(=O)(=O)c3ccc(F)cc3)nc21 [Example 7, 7-ethyl-2-(4-fluorophenylsulfonyl)-N-(5-methyl-1H-pyrazol-3-yl)-7H-pyrrolo[2,3-d]pyrimidin-4-amine]
≤ 10 nM | ≤ 10 nM | ≤ 1 nM | ≤ 100 nM | Cc1cc(Nc2nc(S(=O)(=O)c3ccc(F)cc3)nc3c2ccn3C)n[nH]1 [Example 9, 2-(4-fluorophenylsulfonyl)-7-methyl-N-(5-methyl-1H-pyrazol-3-yl)-7H-pyrrolo[2,3-d]pyrimidin-4-amine]
≤ 10 nM | ≤ 10 nM | ≤ 1 nM | ≤ 100 nM | Cc1cc(Nc2nc(S(=O)(=O)c3ccc(F)cc3)nc3c2ccn3C(C)C)n[nH]1 [Example 10, 2-(4-fluorophenylsulfonyl)-7-isopropyl-N-(5-methyl-1H-pyrazol-3-yl)-7H-pyrrolo[2,3-d]pyrimidin-4-amine]
≤ 10 nM | ≤ 10 nM | ≤ 1 nM | ≤ 100 nM | Cc1cc(Nc2nc(S(=O)(=O)c3ccc(F)cc3)nc3c2ccn3CCO)n[nH]1 [Example 13, 2-(2-(4-fluorophenylsulfonyl)-4-(5-methyl-1H-pyrazol-3-ylamino)-7H-pyrrolo[2,3-d]pyrimidin-7-yl)ethanol]
≤ 10 nM | ≤ 10 nM | ≤ 1 nM | ≤ 100 nM | CCn1ccc2c(Nc3cc(OC)[nH]n3)nc(S(=O)(=O)c3ccc(F)cc3)nc21 [Example 14, 7-ethyl-2-(4-fluorophenylsulfonyl)-N-(5-methoxy-1H-pyrazol-3-yl)-7H-pyrrolo[2,3-d]pyrimidin-4-amine]
≤ 10 nM | ≤ 10 nM | ≤ 1 nM | 100 to 500 nM | CN(C)C(=O)Cn1ccc2c(Nc3cc[nH]n3)nc(S(=O)(=O)c3ccc(F)cc3)nc21 [Example 16, 2-(4-(1H-pyrazol-3-ylamino)-2-(4-fluorophenylsulfonyl)-7H-pyrrolo[2,3-d]pyrimidin-7-yl)-N,N-dimethylacetamide]

Further lines, the compound ahead of its results:

SMILES | Kd [1] | Kd [2] | Kd [3] | IC50 [4]
[O-][S+](c1ccc(F)cc1)c1nc(Nc2cc[nH]n2)c2cc[nH]c2n1 (racemic) [Example 1, (R,S)-2-(4-fluorophenylsulfinyl)-N-(1H-pyrazol-3-yl)-7H-pyrrolo[2,3-d]pyrimidin-4-amine] | 10 to 100 nM | ≤ 10 nM | ≤ 1 nM | ≤ 100 nM
Cc1cc(Nc2nc([S+]([O-])c3ccc(F)cc3)nc3[nH]ccc23)n[nH]1 (racemic) [Example 2, (R,S)-2-(4-fluorophenylsulfinyl)-N-(5-methyl-1H-pyrazol-3-yl)-7H-pyrrolo[2,3-d]pyrimidin-4-amine] | ≤ 10 nM | ≤ 10 nM | ≤ 1 nM | ≤ 100 nM
Cn1ccc2c(Nc3cc[nH]n3)nc([S+]([O-])c3ccc(F)cc3)nc21 (racemic) [Example 5, (R,S)-2-(4-fluorophenylsulfinyl)-7-methyl-N-(1H-pyrazol-3-yl)-7H-pyrrolo[2,3-d]pyrimidin-4-amine] | 10 to 100 nM | ≤ 10 nM | ≤ 1 nM | ≤ 100 nM
Cc1cc(Nc2nc(C(O)c3ccc(F)cc3)nc3nn(C)cc23)n[nH]1 (racemic) [Example 22, (R,S)-(4-fluorophenyl)(2-methyl-4-(5-methyl-1H-pyrazol-3-ylamino)-2H-pyrazolo[3,4-d]pyrimidin-6-yl)methanol] | 10 to 100 nM | ≤ 10 nM | ≤ 1 nM | 100 to 500 nM
O=S(=O)(c1ccc(F)cc1)c1nc(Nc2cc[nH]n2)c2cc[nH]c2n1 [Example 3, 2-(4-fluorophenylsulfonyl)-N-(1H-pyrazol-3-yl)-7H-pyrrolo[2,3-d]pyrimidin-4-amine] | ≤ 10 nM | ≤ 10 nM | ≤ 1 nM | ≤ 100 nM
Cc1cc(Nc2nc(S(=O)(=O)c3ccc(F)cc3)nc3[nH]ccc23)n[nH]1 [Example 4, 2-(4-fluorophenylsulfonyl)-N-(5-methyl-1H-pyrazol-3-yl)-7H-pyrrolo[2,3-d]pyrimidin-4-amine] | ≤ 10 nM | ≤ 10 nM | ≤ 1 nM | ≤ 100 nM
Cn1ccc2c(Nc3cc[nH]n3)nc(S(=O)(=O)c3ccc(F)cc3)nc21 [Example 6, 2-(4-fluorophenylsulfonyl)-7-methyl-N-(1H-pyrazol-3-yl)-7H-pyrrolo[2,3-d]pyrimidin-4-amine] | ≤ 10 nM | ≤ 10 nM | ≤ 1 nM | ≤ 100 nM
CCn1ccc2c(Nc3cc[nH]n3)nc(S(=O)(=O)c3ccc(F)cc3)nc21 [Example 8, 7-ethyl-2-(4-fluorophenylsulfonyl)-N-(1H-pyrazol-3-yl)-7H-pyrrolo[2,3-d]pyrimidin-4-amine] | ≤ 10 nM | ≤ 10 nM | ≤ 1 nM | ≤ 100 nM
COCCn1ccc2c(Nc3cc(C)[nH]n3)nc(S(=O)(=O)c3ccc(F)cc3)nc21 [Example 11, 2-(4-fluorophenylsulfonyl)-7-(2-methoxyethyl)-N-(5-methyl-1H-pyrazol-3-yl)-7H-pyrrolo[2,3-d]pyrimidin-4-amine] | ≤ 10 nM | ≤ 10 nM | ≤ 1 nM | ≤ 100 nM
COCCn1ccc2c(Nc3cc[nH]n3)nc(S(=O)(=O)c3ccc(F)cc3)nc21 [Example 12, 2-(4-fluorophenylsulfonyl)-7-(2-methoxyethyl)-N-(1H-pyrazol-3-yl)-7H-pyrrolo[2,3-d]pyrimidin-4-amine] | ≤ 10 nM | ≤ 10 nM | ≤ 1 nM | ≤ 100 nM
Cc1cc(Nc2nc(S(=O)(=O)c3ccc(F)cc3)nc3c2ccn3CC(=O)N(C)C)n[nH]1 [Example 15] | ≤ 10 nM | ≤ 10 nM | ≤ 1 nM | 100 to 500 nM
